≈ marks a conversion by molar mass, not a printed value.
What was measured:
[1] = test system: P. falciparum NF54 strain (sensitive to standard antimalarials); assay: semiautomated microdilution assay, [3H]-hypoxanthine incorporation, NF54 strain; format: cell-based, Plasmodium falciparum; conditions: NF54 strain, 72 h incubation
Procedure, shortened: (§1)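 Intraerythrocytic stages from unsynchronised stock cultures are exposed to test compounds in a semiautomated microdilution format, and fifty percent inhibitory concentrations are then fitted by logit regression.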

[2] = test system: ANKA strain of P. berghei; assay: single dose STI in vivo screen in infected mice; set-up: species or system Plasmodium berghei; conditions: for Activity (%) po / Activity (%) sc / Activity (%) SSVpo / Activity (%) 3 mg/kg SSV po / Activity (%) 10 mg/kg SSV po: percent reduction in parasitemia day 3 post-infection; for Activity (%) po / Survival (days) po: single 10 mg/kg po in 3% ethanol and 7% Tween 80; for Activity (%) po / Activity (%) sc / Activity (%) SSVpo: mice; for Activity (%) sc / Survival (days) sc: single 10 mg/kg sc in 3% ethanol and 7% Tween 80; for Activity (%) SSVpo: single po dose in standard suspending vehicle (SSV); for Survival (days) po / Survival (days) sc / Survival (days) SSVpo: untreated control 5.6 ± 0.3; for Survival (days) SSVpo: single po dose in SSV; for Activity (%) 3 mg/kg SSV po: single 3 mg/kg po in SSV; for Activity (%) 10 mg/kg SSV po / Survival (days) 10 mg/kg SSV po: single 10 mg/kg po in SSV
Procedure, shortened: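 Groups of 3-5 Moro SPF or NMRI mice infected with the ANKA strain of P. berghei received a single dose of trioxolane on day one post-infection. The compound was given in 3% ethanol and 7% Tween 80 or in SSV (0.5% w/v CMC, 0.5% v/v benzyl alcohol, 0.4% v/v Tween 80, 0.9% w/v sodium chloride in water). Antimalarial activity was scored as percent reduction in parasitemia on day three and as survival time versus untreated controls. Survival to day 30 counted as cure.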

[3] = test system: P. falciparum K1 strain (Thailand resistant to chloroquine); assay: semiautomated microdilution assay, [3H]-hypoxanthine incorporation, K1 strain; format: cell-based, Plasmodium falciparum; conditions: K1 strain, 72 h incubation
Procedure, shortened: as §1

SMILES	IC50 (ng/ml) NF54 [1] [ng/mL]	Activity (%) po [2]	Activity (%) sc [2]	Activity (%) SSVpo [2] [%]	Survival (days) po [2]	Survival (days) sc [2]	Survival (days) SSVpo [2] [days]	IC50 (ng/ml) K1 [3] [ng/mL]	Activity (%) 3 mg/kg SSV po [2] [%]	Activity (%) 10 mg/kg SSV po [2] [%]	Survival (days) 10 mg/kg SSV po [2] [days]
CN(C)C[C@H]1CC[C@]2(CC1)OOC1(O2)C2CC3CC(C2)CC1C3 (stereo partly shown) [OZ232]	0.50 (≈ 1.56 nM)	76%	99.94%	74	8.0 days	8.7 days	7.3	0.30 (≈ 0.933 nM)			
Cc1ccc(S(=O)(=O)NN=C2CCC3(CC2)OOC2(O3)C3CC4CC(C3)CC2C4)cc1 (stereo not shown) [OZ39]	1.8 (≈ 4.03 nM)	61%	99.3%		6.3 days	7.7 days		1.4 (≈ 3.14 nM)			
OCC1(CO)COC2(CCC3(CC2)OOC2(O3)C3CC4CC(C3)CC2C4)OC1 (stereo not shown) [OZ121]	0.41 (≈ 1.03 nM)	91%	99.61%	98	7.3 days	7.3 days	8.0	0.96 (≈ 2.42 nM)			
c1ccc(CC2(Cc3ccccc3)OOC3(O2)C2CC4CC(C2)CC3C4)cc1 (stereo not shown) [OZ52]	3.0 (≈ 7.97 nM)	88%	99.7%		6.7 days	8.0 days		3.1 (≈ 8.23 nM)			
CC(C)C1CCC2(CC1)OOC1(O2)C2CC3CC(C2)CC1C3 (stereo not shown) [OZ40]	2.0 (≈ 6.53 nM)	99%	99.8%		7.3 days	9.0 days		1.4 (≈ 4.57 nM)			
C=C1COC2(CCC3(CC2)OOC2(O3)C3CC4CC(C3)CC2C4)OC1 (stereo not shown) [OZ128]	1.1 (≈ 3.16 nM)	99.93%	99.98%	99.95	8.3 days	11.7 days	8.7	0.59 (≈ 1.69 nM)			
c1ccc(C2(c3ccccc3)CCC3(CC2)OOC2(O3)C3CC4CC(C3)CC2C4)cc1 (stereo not shown) [OZ34]	60 (≈ 144 nM)	0/NA/0%	0/NA/0%		5.3 days	5.7 days		42 (≈ 101 nM)			
CN(C)C(=O)N[C@H]1CC[C@]2(CC1)OOC1(O2)C2CC3CC(C2)CC1C3 (stereo partly shown) [OZ187]	6.8 (≈ 19.4 nM)	77%	77%	94	7.7 days	7.0 days	10.0	4.0 (≈ 11.4 nM)			
O=C1CC2CC(C1)CC1(C2)OOC2(O1)C1CC3CC(C1)CC2C3 (stereo not shown) [OZ13]	0.50 (≈ 1.57 nM)	56%	99.7%		6.7 days	9.7 days		0.40 (≈ 1.26 nM)			
CC(=O)NC[C@H]1CC[C@]2(CC1)OOC1(O2)C2CC3CC(C2)CC1C3 (stereo partly shown) [OZ262]	0.84 (≈ 2.5 nM)	96%	99.39%	98	11.7 days	10.0 days	12.3	0.63 (≈ 1.88 nM)			
c1csc(NC[C@H]2CC[C@]3(CC2)OOC2(O3)C3CC4CC(C3)CC2C4)n1 (stereo partly shown) [OZ252]	2.2 (≈ 5.84 nM)	98.91%	99.82%	99.49	8.3 days	9.3 days	9.0	2.3 (≈ 6.11 nM)			
Clc1ccc2c(NCCNC3CCC4(CC3)OOC3(O4)C4CC5CC(C4)CC3C5)ccnc2c1 (stereo not shown) [OZ258]	5.2 (≈ 10.7 nM)	75%	99.95%	70	6.0 days	10.7 days	6.0	5.8 (≈ 12 nM)			
O=S(=O)(C[C@H]1CC[C@]2(CC1)OO[C@]1(O2)C2CC3CC(C2)CC1C3)c1ncccn1 [OZ299]	6.3 (≈ 15 nM)							6.8 (≈ 16.2 nM)	0	36	6.6
CS(=O)(=O)NC[C@H]1CC[C@]2(CC1)OOC1(O2)C2CC3CC(C2)CC1C3 (stereo partly shown) [OZ257]	21 (≈ 56.5 nM)	99.00%	99.84%	99.49	8.3 days	9.7 days	7.7	42 (≈ 113 nM)			
COC(=O)c1cncn1C[C@H]1CC[C@]2(CC1)OOC1(O2)C2CC3CC(C2)CC1C3 (stereo partly shown) [OZ223]	> 10	89%	99.57%	79	7.3 days	12.0 days	6.3	4.0 (≈ 9.94 nM)			
CS(=O)(=O)c1ccc([C@H]2CC[C@]3(CC2)OOC2(O3)C3CC4CC(C3)CC2C4)cc1 (stereo partly shown) [OZ178]	27 (≈ 64.5 nM)	32%	31%	23	7.3 days	10.0 days	7.3	21 (≈ 50.2 nM)			
O=S(=O)(Cc1ccccc1)N1CCC2(CC1)OOC1(O2)C2CC3CC(C2)CC1C3 (stereo not shown) [OZ131]	4.1 (≈ 9.77 nM)	21%	90%	41	5.7 days	8.0 days	6.0	1.7 (≈ 4.05 nM)			
O=C(CN1C(=O)c2ccccc2C1=O)N1CCC2(CC1)OOC1(O2)C2CC3CC(C2)CC1C3 (stereo not shown) [OZ93]	0.92 (≈ 2.03 nM)	57%	100%	3	6.7 days	13.3 days	6.0	3.3 (≈ 7.29 nM)			
NC1(C(=O)NC[C@H]2CC[C@]3(CC2)OO[C@]2(O3)C3CC4CC(C3)CC2C4)CCCC1 [OZ317]	0.36 (≈ 0.89 nM)							0.33 (≈ 0.816 nM)	99.20	99.92	9.8
O=C1CCC2(CC1)OOC1(CCCCC1)O2 [OZ02]	94 (≈ 415 nM)	0/NA/0^1%	0/NA/0^1%		5.0/NA/5.0^1 days	5.0/NA/5.0^1 days		> 100			
CC1(C)CC(NC2CCC3(CC2)OOC2(O3)C3CC4CC(C3)CC2C4)CC(C)(C)N1 (stereo not shown) [OZ171]	1.4 (≈ 3.34 nM)	98%	99.94%	85	9.0 days	9.7 days	7.0	1.3 (≈ 3.11 nM)			
O=C(C[C@H]1CC[C@]2(CC1)OO[C@]1(O2)C2CC3CC(C2)CC1C3)NCCN1CCOCC1 [OZ313]	0.76 (≈ 1.75 nM)							0.55 (≈ 1.27 nM)	58	98.9	
Fc1ccc(OC2CCC3(CC2)OOC2(O3)C3CC4CC(C3)CC2C4)cc1 (stereo not shown) [OZ193]	8.3 (≈ 22.2 nM)	99.75%	99.92%	93	9.3 days	11.0 days	8.0	5.5 (≈ 14.7 nM)			
O=C(O)c1ccccc1C(=O)N1CCC2(CC1)OOC1(O2)C2CC3CC(C2)CC1C3 (stereo not shown) [OZ132]	> 10	38%	40%	0	6.3 days	6.3 days	5.7	9.8 (≈ 23.7 nM)			
CCS(=O)(=O)CCN1CCC2(CC1)OOC1(O2)C2CC3CC(C2)CC1C3 (stereo not shown) [OZ200]	2.9 (≈ 7.52 nM)	81%	92%	78	7.0 days	8.0 days	7.3	1.0 (≈ 2.59 nM)			
Fc1ccc(C2(c3ccc(F)cc3)OOC3(O2)C2CC4CC(C2)CC3C4)cc1 (stereo not shown) [OZ44]	2.3 (≈ 5.98 nM)	99.3%	99.9%		7.0 days	8.3 days		2.5 (≈ 6.5 nM)			
